Results reported in BigSolDB 2.1.

COC(=O)/C=C(\C)NC(C(=O)[O-])c1ccc(O)cc1.[K+] (stereo not given)
Conditions | solubility (mole fraction)
in ethanol, 278.22 K | 0.000319
in ethanol, 283.26 K | 0.000342
in ethanol, 288.21 K | 0.000369
in ethanol, 293.04 K | 0.0004
in ethanol, 298.07 K | 0.000438
in ethanol, 303.29 K | 0.000481
in ethanol, 308.21 K | 0.000527
in ethanol, 313.09 K | 0.000577
in ethanol, 318.23 K | 0.000635
in ethanol, 323.11 K | 0.000694
in methanol, 278.24 K | 0.00281
in methanol, 283.28 K | 0.00303
in methanol, 288.04 K | 0.00325
in methanol, 293.35 K | 0.0035
in methanol, 298.31 K | 0.00375
in methanol, 302.97 K | 0.00398
in methanol, 308.19 K | 0.00426
in methanol, 313.32 K | 0.00453
in methanol, 318.11 K | 0.0048
in methanol, 322.45 K | 0.00505
